Measured values taken from patent US12414968B2, “Compositions comprising bacterially derived minicells and methods of using the same” (EnGeneIC Molecular Delivery Pty Ltd, priority 2018, dated 2025).
Like-named read-outs stand apart in the source and are kept apart here.

Tests used:
[1] = system: Adreno-cortical cancer cell lines ACC01 and ACC07; test: MTS cell proliferation assay, ACC01 and ACC07; settings: 72 hrs, lines derived from Stage IV patients
Experimental: All cells were incubated for a further 72 hrs followed by the colorimetric MTS cell proliferation assay (Cory et al., Cancer Commun., 3(7): 207-12 (1991)) using the CellTiter 96 AQueous One Solution Cell Proliferation Assay (Promega Corp., Madison, Wis., USA), according to the manufacturer's instructions. The colorimetric measurements were read at 490 nm.

[2] = system: drug-resistant cancer cells; settings: Quintieri et al., 2005; cited from earlier work
[3] = system: human lung cancer cell line A549; test: MTS cell proliferation assay, A549; assay type: cell-based; settings: 72 hrs
[4] = system: bone marrow derived dendritic cells (BMDC) with 4T1 cells; test: BMDC / treated 4T1 co-culture; assay type: cell-based, mouse
Experimental: (§1) The effect of tumor cell death in response to Ep-EDV, Ep-EDV-682, and 682 treatment on dendritic cell maturation was also examined (FIGS. 27E-27I). Bone marrow derived dendritic cells (BMDC) were co-incubated with treated tumor cells (4T1 and CT26Ep12.1) for 48 h, followed by assessment of the production of the type 1 interferons IFNα and IFNβ. Increases in type 1 interferon production by dendritic cells is well established as a mechanism of dendritic cell maturation and enhanced antigen presentation as well as being vital for their interaction with other immune cell subsets including NK cells and T-cells (Fitzgerald-Bocarsly and Feng, 2007; Simmons et al., 2012).
(§2) Bone Marrow Derived DCs (BMDC): Bone marrow was isolated from the femurs and tibias of Balb/c mice. […]
(§3) Macrophage and DC/Tumor Cell Co-cultures: CT26Ep12.1 and 4T1 cells were harvested with Versene (Gibco) and cells were collected in 1 mL Eppendorf tubes. […] RAW264.7/tumor cell co-cultures were collected using a cell scraper and samples were stained with DAPI (Sigma), anti-CD45 Brilliant Violet 510 (BioLegend), anti-CD86 APC-Cy7, and anti-CD206 AF488 and assessed by flow cytometry. […] RNA concentration was determined on an Eppendorf biophotometer plus. […] Data was exported to excel and the relative quantitation was calculated from the ΔΔCt.

[5] = system: MiaPaca-2 cells; test: MTS cell proliferation assay, MiaPaca-2; assay type: cell-based, human; settings: 72 hrs
[6] = system: patient derived pancreatic ductal adenocarcinoma cells (head and tail); test: Drug sensitivity of patient derived PDAC cells; assay type: cell-based, human
Experimental: PDAC cells obtained from resected tumor tissue from both the head and tail of the pancreas were examined for drug sensitivity.
The dosed was administered over 20 min via a 20 ml niki pump and premedications were given prior to dosing as before (van Zandwijk et al., 2017). Serum biochemistry, haematology and cytokine expression was evaluated pre and 3 hours post each dose. CA19-9 and C-reactive protein levels were monitored at least bi-weekly. Peripheral Blood mononuclear cells (PBMCs) were examined by flow cytometry prior to dosing and at the end of the cycle for changes in anti-tumour immune cell numbers. Tumour tissue was obtained from the original surgical resection and PDAC cells were cultured and tested for drug sensitivity and surface receptors expression.

[7] = system: human breast cancer cell line MDA-MB-468; test: MTS cell proliferation assay, MDA-MB-468; assay type: cell-based; settings: 72 hrs
[8] = system: bone marrow derived dendritic cells (BMDC) with CT26Ep12.1 cells; test: BMDC / treated CT26Ep12.1 co-culture; assay type: cell-based, mouse
Experimental: as §1, §2, §3

[9] = system: MiaPaca-2 GemR cells; test: MTS cell proliferation assay, MiaPaca-2 GemR; assay type: cell-based, human; settings: 72 hrs
[10] = system: RAW264.7 cells co-cultured with treated 4T1 and CT26Ep12.1 cells; test: RAW264.7 / treated tumor cell co-culture; assay type: cell-based, mouse; settings: then co-culture
Experimental: Macrophage and DC/Tumor Cell Co-cultures: CT26Ep12.1 and 4T1 cells were harvested with Versene (Gibco) and cells were collected in 1 mL Eppendorf tubes. Cells were resuspended in 1 mL DMEM (Sigma) supplemented with 10% FBS (Bovogen) containing: Ep-EDV (1000:1 and 5000:1—EDV:cells); Ep-EDV-682 (500:1 and 1000:1—EDV:cells); Ep-EDV-Dox (10,000:1—EDV:cell), 100 pmol PNU-159682, 5 μM Doxorubicin, or media alone. […] Cells were then washed thoroughly with PBS to remove any non-adherent EDV or excess drug. Treated tumor cells were cultured overnight with either RAW264.7 or BMDC at a 1:1 ratio of tumor cells:RAW264.7/BMDC/JAWS II. Supernatants were collected for ELISA analysis. RAW264.7/tumor cell co-cultures were collected using a cell scraper and samples were stained with DAPI (Sigma), anti-CD45 Brilliant Violet 510 (BioLegend), anti-CD86 APC-Cy7, and anti-CD206 AF488 and assessed by flow cytometry. JAWS II/tumor cell and BMDC/tumor cell co-cultures were collected with versene and stained with DAPI (Sigma), CD11b AF488 (Abcam), CD11c PE (Molecular Probes), anti-CD45 Brilliant Violet 510 or PECy5 (BioLegend), anti-CD86 APC-Cy7, MHC Class II PECy5 (Thermo Fisher), MHC Class II Brilliant Violet 421 (BioLegend), 7-AAD (BioLegend), and/or CD80 PE (Thermo Fisher) and assessed by flow cytometry. […] RNA concentration was determined on an Eppendorf biophotometer plus. […]

[11] = system: human colorectal cancer cell lines Caco-2 and HCT116; test: MTS cell proliferation assay, Caco-2 and HCT116; assay type: cell-based; settings: 72 hrs
[12] = system: Glioblastoma cell line U87-MG; test: MTS cell proliferation assay, U87-MG; assay type: cell-based; settings: 72 hrs
[13] = system: RAW264.7 cells; test: RAW264.7 cells incubated directly with EDVs; assay type: cell-based, mouse; settings: direct incubation
Description: Results: M1 macrophage polarization and dendritic cell maturation in response to EDV Treatment: Due to the fact that the EDV is derived from Salmonella Typhimurium bacteria, the outer EDV membrane contains a substantial lipopolysaccharide (LPS) content (MacDiarmid et al., 2007b). The interaction of high doses of LPS with macrophages is well known to result in macrophage activation and M1 polarization. To determine if the EDV was capable of eliciting a similar phenotypic response, RAW264.7 cells were incubated with Ep-EDV-682 and Ep-EDV and examined for changes in macrophage phenotype and cytokine production. Expression of the co-stimulatory CD86 expression is known to be a phenotypic indicator of macrophage polarization as well as a hallmark of the antitumor M1 tumor associated macrophages (TAMs) (Dong et al., 2016).
Treatment of RAW264.7 cells with EDVs: RAW264.7 cells were seeded in 6-well plates at 3×10^5 cells per well and incubated overnight. […] Cells were harvested 6h and 24h post treatment using a cell scraper and samples were stained with DAPI (Sigma), anti-CD45 Brilliant Violet 510 (BioLegend), anti-CD86 APC-Cy7 (BioLegend), and anti-CD206 AF488 (R&D Systems) and assessed by flow cytometry.

[14] = system: JAWSII cells; test: αGC-CD1d surface presentation on JAWSII cells (flow cytometry); assay type: cell-based, mouse; settings: 8h to 48h post-treatment; vs minicells alone and untreated
Experimental: Treatment of JAWSII spheroids with EDVαGC: JAWSII cells were treated with 1000 ng/ml αGC (positive control); empty minicells and minicellsαGC compared to untreated cells and collected at 8h, 16h, 24h and 48h post-treatment (FIG. 46A-46D).
Initial treatment preparation: 6 hanging drop suspension samples were used for each treatment group per time point. 5×10^4 JAWSII cells and 5×10^8 minicells ([…]) were used for each treatment sample and cultured in JAWSII cell culture media in a total volume of 50 μl. Extra untreated samples were prepared for isotype controls. The appropriate amount of minicells were pelleted by centrifugation at 12,000 g for 7 min and the supernatant was carefully removed by pipetting. Appropriate amount of live JAWS cells (based on the cell count from the previous section) were added to the pelleted minicells. The minicells were then dissociated into single-minicells-cell suspensions by gentle pipetting. The final volume of each sample was then made up by the addition of sterile culture media. […]
Staining the treated JAWSII cells with anti-alpha GalCer:mCD1d complex monoclonal antibody: The entire content of each hanging drop well was carefully collected using a P200 pipette and transferred into an Eppendorf tube. […] The samples were then analyzed using a Gallios flow cytometer.

| Compound | cytotoxic effect / resistance of the cell lines [1] | IC50s for even drug-resistant cancer cells [2] | cytotoxicity [3] | type 1 interferon mRNA production [4] | inhibition of proliferation / resistance of the cells [5] | drug sensitivity [6] | IC50 ([6]; head and tail PDAC cells) | drug sensitivity ([6]; listed as 682) | inhibition of proliferation / resistance of the cell line [7] | type 1 interferon mRNA production [8] | inhibition of proliferation / resistance of the cells [9] | CD86 expression on RAW264.7 cells [10] | production of TNF-α and IL-6 (Th1 cytokines) [10] | inhibition of proliferation / resistance of the cell lines [11] | inhibition of proliferation / resistance of the cell line [12] | CD86 expression [13] | anti-GalCer:mCD1d staining (αGC surface presentation) [14] |
| --- | --- | --- | --- | --- | --- | --- | --- | --- | --- | --- | --- | --- | --- | --- | --- | --- | --- |
| COc1cccc2c1C(=O)c1c(O)c3c(c(O)c1C2=O)C[C@@](O)(C(=O)CO)C[C@@H]3OC1CC2C(OC3C(OC)OCCN23)C(C)O1 (stereo partly drawn) [PNU-159682, 3′-deamino-3″,4′-anhydro-[2″(S)-methoxy-3″(R)-oxy-4″-morpholinyl] doxorubicin] | potent cytotoxic effects | pM range | greater cytotoxicity | unable to elicit increases | could inhibit proliferation | sensitive | pM range | extreme sensitivity | inhibited proliferation | unable to elicit increases | could inhibit proliferation | unable to produce any significant change | no increase | inhibited proliferation | could inhibit proliferation | did not induce the same response |  |
| CCCCCCCCCCCCCCCCCCCCCCCCCC(=O)N[C@@H](CO[C@H]1O[C@H](CO)[C@H](O)[C@H](O)[C@H]1O)[C@H](O)[C@H](O)CCCCCCCCCCCCCC [free α-GC, α-galactosylceramide] |  |  |  |  |  |  |  |  |  |  |  |  |  |  |  |  | clear shift |
